Results taken from PubChem BioAssay AID1963875 (Molecular Pharmacology Branch, DTP, NCI, 2024).
pIC50: −log10 of the molar value.

Tested on: KRAS-mutant PDC complex spheroid viability
Test: Anticancer human tumor 186277-243-T-J2-PDC patient-derived colon adenocarcinoma cell line growth inhibition [KRAS2]
Details: for pIC50: curve of first compound; for viability, T/C: stronger effect = lower value; active = viability on the fitted dose curve at most 10% of control; inactive = the rest
In short: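 KRAS-mutant tumor cells were grown as spheroids with HUVEC endothelial cells and human MSCs as stroma. Targeted agents were tested alone and with KRAS pathway inhibitors. Doses started at or near clinical Cmax, or 10 microM, descending half-log.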

[1] = second compound 0.0316 µM, first compound 0.0316 µM
[2] = second compound 0.0316 µM, first compound 0.1 µM
[3] = second compound 0.0316 µM, first compound 0.316 µM
[4] = second compound 0.0316 µM, first compound 1 µM
[5] = second compound 0.0316 µM, first compound 3.16 µM
[6] = second compound 0.0316 µM, first compound 10 µM
[7] = second compound 0.1 µM, first compound 0.0316 µM
[8] = second compound 0.1 µM, first compound 0.1 µM
[9] = second compound 0.1 µM, first compound 0.316 µM
[10] = second compound 0.1 µM, first compound 1 µM
[11] = second compound 0.1 µM, first compound 3.16 µM
[12] = second compound 0.1 µM, first compound 10 µM
[13] = second compound 0.316 µM, first compound 0.0316 µM
[14] = second compound 0.316 µM, first compound 0.1 µM
[15] = second compound 0.316 µM, first compound 0.316 µM
[16] = second compound 0.316 µM, first compound 1 µM
[17] = second compound 0.316 µM, first compound 3.16 µM
[18] = second compound 0.316 µM, first compound 10 µM
[19] = second compound 1 µM, first compound 0.0316 µM
[20] = second compound 1 µM, first compound 0.1 µM
[21] = second compound 1 µM, first compound 0.316 µM
[22] = second compound 1 µM, first compound 1 µM
[23] = second compound 1 µM, first compound 3.16 µM
[24] = second compound 1 µM, first compound 10 µM
[25] = second compound 3.16 µM, first compound 0.0316 µM
[26] = second compound 3.16 µM, first compound 0.1 µM
[27] = second compound 3.16 µM, first compound 0.316 µM
[28] = second compound 3.16 µM, first compound 1 µM
[29] = second compound 3.16 µM, first compound 3.16 µM
[30] = second compound 3.16 µM, first compound 10 µM
[31] = second compound 0.0316 µM, first compound 0.000316 µM
[32] = second compound 0.0316 µM, first compound 0.001 µM
[33] = second compound 0.0316 µM, first compound 0.00316 µM
[34] = second compound 0.0316 µM, first compound 0.01 µM
[35] = second compound 0.1 µM, first compound 0.000316 µM
[36] = second compound 0.1 µM, first compound 0.001 µM
[37] = second compound 0.1 µM, first compound 0.00316 µM
[38] = second compound 0.1 µM, first compound 0.01 µM
[39] = second compound 0.316 µM, first compound 0.000316 µM
[40] = second compound 0.316 µM, first compound 0.001 µM
[41] = second compound 0.316 µM, first compound 0.00316 µM
[42] = second compound 0.316 µM, first compound 0.01 µM
[43] = second compound 1 µM, first compound 0.000316 µM
[44] = second compound 1 µM, first compound 0.001 µM
[45] = second compound 1 µM, first compound 0.00316 µM
[46] = second compound 1 µM, first compound 0.01 µM
[47] = second compound 3.16 µM, first compound 0.000316 µM
[48] = second compound 3.16 µM, first compound 0.001 µM
[49] = second compound 3.16 µM, first compound 0.00316 µM
[50] = second compound 3.16 µM, first compound 0.01 µM
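Throughout, for viability, T/C: viability read after seven days of compound exposure; 100% = DMSO vehicle-treated spheroids so lower means less viable.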

CC(C)NCC(C(=O)N1CCN(c2ncnc3c2C(C)CC3O)CC1)c1ccc(Cl)cc1 (stereo not given) + C=CC(=O)N1CCN(c2nc(OCC3CCCN3C)nc3c2CCN(c2cccc4cccc(C)c24)C3)CC1CC#N
6.18: pIC50 (second compound 0.1 µM)
active: viability, T/C [25] 0.22% | viability, T/C [26] 0.21% | viability, T/C [27] 0.16% | viability, T/C [28] 0.13% | viability, T/C [29] 0.12% | viability, T/C [30] 0.21%
inactive: viability, T/C [1] 93.5% | viability, T/C [2] 105% | viability, T/C [3] 73.5% | viability, T/C [4] 37% | viability, T/C [5] 26.5% | viability, T/C [6] 11.2% | viability, T/C [7] 113% | viability, T/C [8] 87.8% | viability, T/C [9] 72.7% | viability, T/C [10] 36.5% | viability, T/C [11] 23.6% | viability, T/C [12] 12.3% | viability, T/C [13] 108% | viability, T/C [14] 96.3% | viability, T/C [15] 62.4% | viability, T/C [16] 29.9% | viability, T/C [17] 19.2% | viability, T/C [18] 8.67% | viability, T/C [19] 97.8% | viability, T/C [20] 104% | viability, T/C [21] 36.3% | viability, T/C [22] 18.4% | viability, T/C [23] 9.11% | viability, T/C [24] 4.64%
6.16: pIC50 (second compound 0.0316 µM)
6.30: pIC50 (second compound 0.316 µM)
> 7.50: pIC50 (second compound 3.16 µM)
6.61: pIC50 (second compound 1 µM)

CC(C)n1nc(-c2ccc3oc(N)nc3c2)c2c(N)ncnc21 + C=CC(=O)N1CCN(c2nc(OCC3CCCN3C)nc3c2CCN(c2cccc4cccc(C)c24)C3)CC1CC#N
> 9.50: pIC50 (second compound 3.16 µM)
8.15: pIC50 (second compound 0.0316 µM)
active: viability, T/C [20] 8.12% | viability, T/C [47] 0.26% | viability, T/C [48] 0.19% | viability, T/C [49] 0.24% | viability, T/C [50] 0.14% | viability, T/C [25] 0.12% | viability, T/C [26] 0.16%
8.19: pIC50 (second compound 1 µM)
8.00: pIC50 (second compound 0.1 µM)
inactive: viability, T/C [31] 89.7% | viability, T/C [32] 78.9% | viability, T/C [33] 63.5% | viability, T/C [34] 44.2% | viability, T/C [1] 28.2% | viability, T/C [2] 16.9% | viability, T/C [35] 88% | viability, T/C [36] 101% | viability, T/C [37] 77.8% | viability, T/C [38] 51.2% | viability, T/C [7] 27.4% | viability, T/C [8] 21.2% | viability, T/C [39] 106% | viability, T/C [40] 111% | viability, T/C [41] 97.1% | viability, T/C [42] 58.2% | viability, T/C [13] 27% | viability, T/C [14] 16.4% | viability, T/C [43] 102% | viability, T/C [44] 96.1% | viability, T/C [45] 70.8% | viability, T/C [46] 38.4% | viability, T/C [19] 12.8%
7.87: pIC50 (second compound 0.316 µM)

CC1(C)CCC(CN2CCN(c3ccc(C(=O)NS(=O)(=O)c4ccc(NCC5CCOCC5)c([N+](=O)[O-])c4)c(Oc4cnc5[nH]ccc5c4)c3)CC2)=C(c2ccc(Cl)cc2)C1 + C=CC(=O)N1CCN(c2nc(OCC3CCCN3C)nc3c2CCN(c2cccc4cccc(C)c24)C3)CC1CC#N
active: viability, T/C [6] 3.14% | viability, T/C [12] 4.15% | viability, T/C [18] 0.82% | viability, T/C [23] 0.67% | viability, T/C [24] 0.35% | viability, T/C [25] 0.28% | viability, T/C [26] 1.07% | viability, T/C [27] 0.22% | viability, T/C [28] 0.18% | viability, T/C [29] 0.13% | viability, T/C [30] 0.17%
inactive: viability, T/C [1] 101% | viability, T/C [2] 107% | viability, T/C [3] 110% | viability, T/C [4] 117% | viability, T/C [5] 19.4% | viability, T/C [7] 115% | viability, T/C [8] 105% | viability, T/C [9] 112% | viability, T/C [10] 108% | viability, T/C [11] 25% | viability, T/C [13] 114% | viability, T/C [14] 108% | viability, T/C [15] 97.8% | viability, T/C [16] 105% | viability, T/C [17] 10.8% | viability, T/C [19] 119% | viability, T/C [20] 101% | viability, T/C [21] 115% | viability, T/C [22] 98.2%
5.75: pIC50 (second compound 1 µM)
5.67: pIC50 (second compound 0.0316 µM)
5.71: pIC50 (second compound 0.316 µM)
5.65: pIC50 (second compound 0.1 µM)
> 7.50: pIC50 (second compound 3.16 µM)

Cn1ncnc1[C@H]1c2n[nH]c(=O)c3cc(F)cc(c23)N[C@@H]1c1ccc(F)cc1 + C=CC(=O)N1CCN(c2nc(OCC3CCCN3C)nc3c2CCN(c2cccc4cccc(C)c24)C3)CC1CC#N
< 7.00: pIC50 (second compound 0.0316 µM) | pIC50 (second compound 0.1 µM) | pIC50 (second compound 0.316 µM) | pIC50 (second compound 1 µM)
inactive: viability, T/C [31] 94.5% | viability, T/C [32] 109% | viability, T/C [33] 100% | viability, T/C [34] 93.8% | viability, T/C [1] 99.2% | viability, T/C [2] 79.8% | viability, T/C [35] 114% | viability, T/C [36] 98.5% | viability, T/C [37] 110% | viability, T/C [38] 94.9% | viability, T/C [7] 98.3% | viability, T/C [8] 80.5% | viability, T/C [39] 92% | viability, T/C [40] 109% | viability, T/C [41] 106% | viability, T/C [42] 108% | viability, T/C [13] 90.1% | viability, T/C [14] 79.4% | viability, T/C [43] 103% | viability, T/C [44] 95.4% | viability, T/C [45] 105% | viability, T/C [46] 84.8% | viability, T/C [19] 70.8% | viability, T/C [20] 63.4%
> 9.50: pIC50 (second compound 3.16 µM)
active: viability, T/C [47] 0.19% | viability, T/C [48] 0.19% | viability, T/C [49] 0.16% | viability, T/C [50] 0.18% | viability, T/C [25] 0.21% | viability, T/C [26] 0.27%
